Data: patent US8053197B2, “Methods for detecting and treating autoimmune disorders” (Oregon Health & Science University, priority 2004, dated 2011)

How the values were obtained:
Type in all cases: in vivo, C57BL/6 mice
[1] = system: EAE; experiment: EAE induced with MOG-35-55 peptide/CFA/pertussis toxin, clinical score
Source text: Female C57BL/6 mice were pretreated with 17β-estradiol (E2) or placebo for 7 days prior to challenge with MOG-35-55 peptide/CFA/PM to induce EAE. At the peak of EAE in the placebo group (day 15 after induction), cells were harvested from both the placebo-treated mice (score=4.5-5) and E2-treated mice (score=0). Cell mixtures were combined within each treatment group. Five×10^4 CD4+CD25− responder cells in combination with 5×10^4 APC and the indicated ratios of CD4+CD25+ suppressor cells were stimulated in triplicate wells with anti-CD3 mAb for 3 days, with addition of [^3H]-thymidine for the last 12 h of culture. Representative data from two independent experiments are shown.
(§1) For E2 therapy, a 3 mm pellet containing 2.5 mg or 15 mg (as indicated) 17β-estradiol (Innovative Research of America, Sarasota, Fla.) was implanted s.c. (dorsally) 7 days prior to immunization (EAE) or 14 days prior to analysis of naïve mice. These pellets are designed to release their contents at a constant rate over 60 days. Control animals were implanted with pellets containing saline. Serum levels of E2 were monitored by RIA.
Briefly, mice were immunized s.c. in the flanks with 200 μg MOG-35-55 peptide in CFA (Difco Laboratories, Detroit, Mich.). Mice were also given pertussis toxin i.p on days 0 (75 ng) and 2 (200 ng).

[2] = system: Treg compartment; experiment: Treg compartment (CD25, Foxp3 mRNA, FoxP3 protein) in naïve mice treated with E2 for 14 days
Procedure: Quadrant statistics noted are percent of live gate.
FIG. 5 is a graph illustrating real-time PCR analysis of Foxp3 mRNA in CD4+ cells from FIG. 4. Data are presented as Foxp3 relative to housekeeping gene L32. Error bars are standard deviation of triplicate samples.
Cells were pooled from 8-10 mice before sorting.
as §1
Single-cell suspensions were prepared from spleens and RBCs lysed. Non-immunized mice receiving E2 pellets were sacrificed 14 days after implantation, while immunized mice were sacrificed at the peak of EAE disease severity, approximately 17 days after induction. […]
For real-time RT-PCR analysis, total RNA was prepared using the Total RNeasy kit (Qiagen, Germantown, Md.) and cDNA was prepared using random hexamer primers (Invitrogen, Grand Island, N.Y.). Foxp3 message expression was quantified using the ABI 7000 Real-Time PCR System (Applied Biosystems, Foster City, Calif.). Amplification was performed in a total volume of 25 μl for 40 cycles and products were detected using SYBR Green I dye (Molecular Probes, Eugene, Oreg.). Samples were run in triplicate and relative expression level was determined by normalization to L32 with results presented as relative expression (RE) units. […] For analysis of FoxP3 protein, cells were washed in PBS then lysed and sonicated in lysis buffer {25 mM Tris pH 8.5, 2% lithium dodecyl sulfate, 1 mM EDTA, 10 mM sodium fluoride, 1 mM sodium orthovanadate, and 1× Complete protease inhibitors (Roche Diagnostics, Mannheim, Germany)} and quantified by BCA (Pierce, Rockford, Ill.). […] FoxP3 was detected with rabbit-anti-FoxP3 antiserum and standard chemiluminescence. […]

[3] = system: CD4+CD25− responder cells; experiment: Suppressive activity of CD4+CD25+ T cells from treated mice on CD4+CD25− responder cells (I50)
Procedure: FIG. 7 illustrates the suppressive activity of CD4+CD25+ T cells recovered from placebo, E2-treated and pregnant mice was measured by their ability to suppress the growth of CD4+CD25−responder cells. Varying numbers of sorted CD4+CD25+ Treg cells from placebo-treated, E2-treated, and pregnant mice were co-cultured in triplicate for 3 days without (0:1 ratio) or with a constant number (5×10^4) of CD4+CD25−responder cells and APC (10^5) from naïve donors, and 0.5 μg/ml anti-CD3 mAb. Responder cells were also cultured alone (1:0 ratio). Proliferation was monitored by uptake of [^3H]-thymidine (1 μCi/well) for the last 12 h of culture. Data are representative of three independent experiments. *I50 values (% CD4+CD25+ cells that could inhibit the proliferation of anti-CD3-activated CD4+CD25−responder cells by 50%) represent the average of two or more independent experiments.
Female C57BL/6 mice were pretreated with 17β-estradiol (E2) or placebo for 7 days prior to challenge with MOG-35-55 peptide/CFA/PM to induce EAE. At the peak of EAE in the placebo group (day 15 after induction), cells were harvested from both the placebo-treated mice (score=4.5-5) and E2-treated mice (score=0). Cell mixtures were combined within each treatment group. […]

C[C@]12CC[C@@H]3c4ccc(O)cc4CC[C@H]3[C@@H]1CC[C@@H]2O [E2, 17β-estradiol]
EAE score ([1]; E2 pretreatment 7 days before challenge, day 15 after induction (placebo 4.5-5)): 0 | protection from EAE ([1]; wild-type C57BL/6 mice, therapeutic doses of E2): protected from EAE | FoxP3 protein [2]: increase | Foxp3 mRNA in CD4+ cells [2]: increase | increase in the fraction of CD25+ cells among all CD4+ cells versus untreated mice [2]: 43% | I50 of Treg suppressive activity ([3]; E2-protected mice challenged for EAE, day 15, control mice with EAE 30%): 2.5% | average I50 value for CD4+CD25+ Treg cells ([3]; Treg from E2-treated mice without EAE, naïve mice 22.4±[…], n=3 experiments): 14.7±0.3%
